Reference: patent US20150143553A1, “Methods And Compositions Comprising A Drosophila Model Of Amyotrophic Lateral Sclerosis” (priority 2013, published 2015)
Counter-ions that a name gives are not always drawn.

Tested on: Drosophila larvae expressing wild-type TDP-43 in motor neurons
Assay: Drug screen: rescue of lethality caused by wild-type TDP-43 expression in motor neurons (D42 Gal4)
Type: in vivo
Conditions: transgene WT2
Text: […] Larvae expressing TDP-43 (wild type or mutant, as shown) are raised on drug containing food.
[…] Larvae expressing TDP-43 (wt or mutant) were raised on drug containing food.
Using a Drosophila model of ALS based on TDP-43 that recapitulates several aspects of the disease pathophysiology (33, 35), a drug screen aimed at identifying FDA approved compounds with neuroprotective potential in vivo were designed (FIG. 37A). […] This phenotype was used to screen for drug candidates with therapeutic potential as determined by their ability to rescue pupal lethality and produce viable adults with extended wings (FIG. 37A). […]
UAS TDP-43 males were crossed with D42-Gal4 female virgins on fly food containing either DMSO or pioglitazone. For DMSO controls, the same volume of DMSO as the corresponding drug concentration was added. Bromophenol blue was added to a final concentration of approximately 0.02% to ensure homogeneity. Crosses were made on drug food with 3 female virgins and 2 males in each vial, and were maintained at 25° C. unless noted. The parents were discarded after 5-7 days then the vials were screened for adult progeny with straight wings from day 14 to day 25. All adults were screened for TDP-43 expression by visualizing the YFP tag. Total number of pupae was counted on day 25. Percent survival was calculated using the formula (total number of straight-winged adults/total number of pupae)×100. All experiments were performed in triplicate.

Compound	Preliminary rescue result: adults with normal wings (30 μM in fly food)	Preliminary rescue result: adults with normal wings (50 μM in fly food)
CCOC(=O)[C@H](CCc1ccccc1)N[C@@H](C)C(=O)N1[C@H](C(=O)O)C[C@@H]2CCC[C@@H]21 [Ramipril]	1 Adult Normal Wings Adults	–
Nc1ccc(S(N)(=O)=O)cc1 [Sulfanilamide]	–	1 Adult Normal Wings Adults
C[C@]12CC[C@H]3[C@@H](CCC4=CC(=O)CC[C@@]43C)[C@@H]1CC[C@@H]2C(=O)CO [Deoxycorticosterone]	1 Adult Normal Wings Adults	–
CC(=O)Nc1c(I)c(C(=O)N[C@H]2C(O)O[C@H](CO)[C@@H](O)[C@@H]2O)c(I)c(N(C)C(C)=O)c1I (some centres unmarked) [Metrizamide]	–	2 Adults Normal Wings
Cc1cc(C(C#N)c2ccc(Cl)cc2)c(Cl)cc1NC(=O)c1cc(I)cc(I)c1O (centres unmarked) [Closantel]	–	2 Adults Normal Wings
CC(C(=O)[O-])c1cccc(Oc2ccccc2)c1.CC(C(=O)[O-])c1cccc(Oc2ccccc2)c1.O.O.[Ca+2] (centres unmarked) [Fenoprofen Ca Salt Dihydrate]	2 Adult Normal Wings Adults	–
C[C@]12CCC(=O)C=C1CC[C@H]1[C@@H]3CC[C@](O)(C(=O)CO)[C@@]3(C)C[C@H](O)[C@@]12F [Fludrocortisone]	–	2 Adults Normal Wings
CC(N)C(O)c1ccccc1 (centres unmarked) [Phenylpropanolamine Hydrochloride]	–	1 Adult: 1 Normal Wing Adults
Cc1nccn1CC1CCc2c(c3ccccc3n2C)C1=O (centres unmarked) [Ondansetron Hcl]	1 Adult Normal Wings Adults	–
O=P(O)(O)C(Cl)(Cl)P(=O)(O)O [Clodronate]	–	3 Adult Normal Wings Adults
Cc1cc(-c2ccccc2)nnc1NCCN1CCOCC1 [Minaprine Dihydrochloride]	–	1 Adult Normal Wings Adults
CC[N+](C)(CC)CCOC(=O)C1c2ccccc2Oc2ccccc21 [Methantheline Bromide]	1 Adult Normal Wings Adults	–
CC(=O)OCC(=O)[C@@]12OC3(CCCC3)O[C@@H]1C[C@H]1[C@@H]3CCC4=CC(=O)C=C[C@]4(C)[C@@]3(F)[C@@H](O)C[C@@]12C [Amcinonide]	1/1	–
COc1ccccc1N1CCN(CCCNc2cc(=O)n(C)c(=O)n2C)CC1 [Urapidil Hydrochloride]	1 Adult Normal Wings Adults	–
Verteporfin	1 Adult Normal Wings Adults	–
COc1cnc(NS(=O)(=O)c2ccc(N)cc2)nc1 [Sulfameter]	3 Adult Normal Wings Adults	–
CC1(C)S[C@@H]2[C@H](NC(=O)[C@H](C(=O)[O-])c3ccsc3)C(=O)N2[C@H]1C(=O)[O-].[Na+].[Na+] [Ticarcillin Sodiim]	1 Adult Normal Wings Adults	–
CC(CNC1CCCCC1)OC(=O)c1ccccc1 (centres unmarked) [Hexylcaine HCl]	6 Adults Normal Wings	–
Nc1c2c(nc3ccccc13)CCCC2 [Tacrine Hydrochloride Hydrate]	–	4 Adults Normal Wings
CCN1CCCC1CNC(=O)c1cc(S(N)(=O)=O)ccc1OC (centres unmarked) [Sulpiride]	–	1 Adult Normal Wings Adults
CCC(=O)O[C@]1(C(=O)SCF)[C@H](C)C[C@H]2[C@@H]3C[C@H](F)C4=CC(=O)C=C[C@]4(C)[C@@]3(F)[C@@H](O)C[C@@]21C [Fluticasone Propionate]	1 Adult Normal Wings Adults	–
COc1cc2nc(N3CCN(C(=O)C4CCCO4)CC3)nc(N)c2cc1OC.Cl (centres unmarked) [Terazosin HC1]	3 Adult Normal Wings Adults	–

Compound	Preliminary rescue result: adults with normal wings (30 μM in fly food)	Preliminary rescue result: adults with normal wings (50 μM in fly food)
CCOc1cc(CC(=O)N[C@@H](CC(C)C)c2ccccc2N2CCCCC2)ccc1C(=O)O [Repaglinide]	–	1 Adult Normal Wings Adults
COc1ccc(C(=O)c2ccccc2)c(O)c1 [Oxybenzone]	1 Adult Normal Wings Adults	–
CCC(=O)[C@@]1(C)[C@H](C)C[C@H]2[C@@H]3CCC4=CC(=O)C=C[C@]4(C)[C@H]3[C@@H](O)C[C@@]21C [Rimexolone]	1 Adult Normal Wing Adults	–
OC(CCN1CCCC1)(c1ccccc1)C1CCCCC1 (centres unmarked) [Procyclidine HCL]	1 Adult Normal Wings Adults	–
Oc1c(Cl)cc(Cl)c(Cl)c1Cc1c(O)c(Cl)cc(Cl)c1Cl [Hexachlorophene]	1 Adult Normal Wings Adults	–
CCCc1nc2c(C)cc(-c3nc4ccccc4n3C)cc2n1Cc1ccc(-c2ccccc2C(=O)O)cc1 [′Telmisartan]	2/2 Adult Normal Wings	–
CC(C)Cn1cnc2c(N)nc3ccccc3c21 [Imiquimod]	2 Adult Normal Wings Adults	–
CC(=O)Oc1ccccc1C(=O)O [Acetylsalicylic Acid]	1/1	–
CCCCNc1c(C(=O)OCC)c(C)nc2c1cnn2CC [Tracazolate Hydrochloride]	1 Adult Normal Wings Adults	–
CC(C)(C)NC[C@H](O)COc1ccccc1C1CCCC1 [Penbutolol Sulfate]	1 Adult Normal Wings Adults	–
C[N+](C)(CCOc1ccccc1)Cc1ccccc1.O=C([O-])c1cc2ccccc2cc1O [BepheniμM Hydroxynaphthoate]	2 Adult Normal Wings Adults	–
CO[C@@]1(NC(=O)Cc2cccs2)C(=O)N2C(C(=O)O)=C(COC(N)=O)CS[C@@H]21 [Cefoxitin Sodium Salt]	1 Adult Normal Wings Adults	–
CO/N=C(\C(=O)N[C@@H]1C(=O)N2C(C(=O)O)=C(C[N+]3(C)CCCC3)CS[C@H]12)c1csc(N)n1 [Cefepime Hydrochloride]	2 Adult Normal Wings Adults	–
Cl.NCC(O)c1ccc(O)cc1 (racemic) [(+,−)-Octopamine HCl]	5 Adult Normal Wings Adults	–
C[C@H](O)C(=O)Nc1c(I)c(C(=O)NC(CO)CO)c(I)c(C(=O)NC(CO)CO)c1I [Iopamidol]	3 Adult Normal Wings Adults	–
CCC1(c2ccccc2)NC(=O)N(C)C1=O (centres unmarked) [Mephenytoin]	2/1	–
N[C@@H](Cc1cc(I)c(Oc2ccc(O)c(I)c2)c(I)c1)C(=O)O [Liothyronine]	3 Adult Normal Wings Adults	–
O=c1cc(-c2ccc(O)c(O)c2)oc2cc(O)cc(O)c12 [Luteolin]	1 Adult Normal Wings Adults	–
Nc1ccc(/N=N/c2ccccc2)c(N)n1 [Phenazopyridine Hydrochloride]	1 Adult Normal Wings Adults	–
CC1(C)S[C@@H]2[C@H](NC(=O)[C@H](NC(=O)N3CCNC3=O)c3ccccc3)C(=O)N2[C@H]1C(=O)[O-].[Na+] [Azlocillin Na Salt]	1 Adult Normal Wings Adults	–
O=C(COc1ccc(Cl)cc1)N1CCN(Cc2ccc3c(c2)OCO3)CC1 [Fipexide Hydrochloride]	–	1 Adult Normal Wings Adults
CC(C)NCC(O)COc1ccc(COCCOC(C)C)cc1.CC(C)NCC(O)COc1ccc(COCCOC(C)C)cc1.O=C(O)/C=C/C(=O)O (centres unmarked) [Beoprolol Fumarate]	–	1 Adult Normal Wings Adults
